Where a SMILES comes first, the peptide text is derived from it. The star is where a group is joined. Stearoyl = CCCCCCCCCCCCCCCCCC(=O)*
Tests used:
[1] = test system: healthy human osteoblasts; assay: Cellular uptake of curcumin by bright field and confocal microscopy; assay type: cell-based; settings: normal human osteoblast cells, 20 μM curcumin
Procedure: (§1) A confocal laser scanning microscope and a bright field microscope were used for a qualitative study of the cellular uptake of curcumin from curcumin-loaded APNPs. First, 1 mL each of the osteosarcoma cell line and the healthy human osteoblast cell line were seeded on a 24-well plate at a density of 2×10^4 cells/mL. […] The cells were then rinsed with phosphate-buffered saline three times to remove the unabsorbed curcumin. The qualitative uptake of curcumin was then monitored by bright field microscopy. In another study, the nuclei of the cells were tracked by blue fluorescent DAPI staining using confocal microscopy (FIGS. 8A-8F), and the F-actin filaments of cells were stained with red fluorescent Rhodamine 6G. After 10 minutes of fixation by 10% formaldehyde solution and subsequent treatment with a 0.1% Triton X-100 solution for 10 minutes, the cells were stained with DAPI and Atto Rho6G phalloidin and observed using a Zeiss LSM710 laser scanning confocal microscope.

[2] = Solubility of curcumin in water; assay type: physicochemical; settings: thermodynamic from solid
[3] = background statement; cited from earlier work
MG-63 osteosarcoma cells [4] = assay: Cellular uptake of curcumin by bright field and confocal microscopy; assay type: cell-based, human; settings: 20 μM curcumin
Procedure: as §1

Human dermal fibroblasts = settings: 24 hours, MTS
Procedure: Human dermal fibroblasts (Lonza, CC-2511) were plated at a density of 10,000 cells/cm^2 in a 96-well plate and maintained in DMEM culture medium supplemented with 10% fetal bovine serum (FBS, Hyclone) and 1% penicillin/streptomycin (P/S, Hyclone). APNPs were added to the culture medium to achieve the indicated final concentration of C18GR7RGDS, and the cells were incubated for 24 hours prior to determination of cell density by MTS assay.

[5] = Zeta potential measurement (ZS90 Nanosizer); assay type: physicochemical; settings: deionized water
Procedure: The zeta potential of the nanoparticles was determined using 1 mL of each sample, each measured for ten preparations in triplicate.

MG-63 osteosarcoma cells [6] = assay: MTT cytotoxicity assay; settings: osteosarcoma cell line, highest concentration investigated, 24 hours, serum-free medium
Procedure: (§2) MG-63 osteosarcoma (CRL-1427) cells (American Type Culture Collection) were cultured in Eagle's Minimum Essential Medium supplemented with 10% fetal bovine serum and 1% penicillin/streptomycin, while healthy human osteoblasts (C-12760, PromoCell) were cultured in complete growth medium composed of osteoblast basal medium and osteoblast growth medium Supplement Mix. Both cell lines were incubated at 37° C. in a humidified incubator with an atmosphere of 95% […] and 5% CO2. Cells were used at population doubling numbers less than 3. Eagle's Minimum Essential Medium was purchased from the American Type Culture Collection (Manassas, Va., USA), and osteoblast basal medium and osteoblast growth medium Supplemental Mix were purchased from PromoCell (Heidelberg, Germany). Methyl-thiazolyl-tetrazolium (MTT) dye solution was purchased from Promega (Madison, Wis., USA). 4′,6-diamidino-2-phenylindole (DAPI), and Atto Rho6G phalloidin were supplied by Sigma-Aldrich (St Louis, Mo., USA).
(§3) 100 μL of the osteosarcoma and healthy osteoblast cell suspensions were seeded on a 96-well plate at 2×10^3 cells/well (cell density 6,154 cells/cm^2). […] Cells treated with medium only were used as a […] control. […]
(§4) The cells were treated for 24 hours. […] Cell viability was expressed as the ratio of cell density in each sample to the cell density in the control sample.

[7] = test system: healthy human osteoblasts; assay: MTT cytotoxicity assay; settings: human osteoblast cell line, highest concentration investigated, 24 hours, serum-free medium
Procedure: as §2, §3, §4

Row | solubility [2] | Compound | curcumin uptake, confocal fluorescence [1] | curcumin uptake, bright field microscopy ([1]; 2 hours) | solubility in water [3] | curcumin uptake, confocal fluorescence (MG-63 osteosarcoma cells [4]) | curcumin uptake, bright field microscopy (MG-63 osteosarcoma cells [4]; 2 hours) | concentration resulting in significant loss of cell viability (reduced density of living cells) (Human dermal fibroblasts) | stability in aqueous solution (indicated by zeta potential) [5] | cytotoxicity (MG-63 osteosarcoma cells [6]) | cytotoxicity [7]
1 | < 100 µg/mL | COc1cc(/C=C/C(=O)CC(=O)/C=C/c2ccc(O)c(OC)c2)ccc1O [curcumin, diferuloylmethane] | neither cell line showed detectable fluorescence | did not accumulate in the cytosol | insoluble in water | neither cell line showed detectable fluorescence | did not accumulate in the cytosol | – | – | – | –
2 | – | CCCCCCCCCCCCCCCCCC(=O)NCC(=O)N[C@@H](CCCNC(=N)N)C(=O)N[C@@H](CCCNC(=N)N)C(=O)N[C@@H](CCCNC(=N)N)C(=O)N[C@@H](CCCNC(=N)N)C(=O)N[C@@H](CCCNC(=N)N)C(=O)N[C@@H](CCCNC(=N)N)C(=O)N[C@@H](CCCNC(=N)N)C(=O)N[C@@H](CCCNC(=N)N)C(=O)NCC(=O)N[C@@H](CC(=O)O)C(=O)N[C@@H](CO)C(=O)O [pure C18GR7RGDS APNPs] (Stearoyl-GRRRRRRRRGDS-OH) | – | – | – | – | – | ≥ 40 µM | stable in aqueous solution | minor cytotoxicity | minor cytotoxicity

— patent publication US20170202783A1, “Amphiphilic Peptide Nanoparticles for Use as Hydrophobic Drug Carriers and Antibacterial Agents” (Northeastern University, priority 2014, published 2017)
